Laboratory results reported in patent US20070066608A1, “Novel indole derivatives with an improved antipsychotic activity” (priority 2003, published 2007).

Key:
Human 5HT1A receptor = biological target: T1, Human 5HT1A receptor (Homo sapiens, UniProt P08908); assay: Binding experiment for 5-HT1A receptor, [3H]8OHDPAT; conditions: membranes of 5HT1A receptor-transfected L929 cells, read-out: pIC50 5HT1A (converted)
T1 construct: expressed in transfected cells; host or cells: L929 cells (stably transfected)
T1 sequence (P08908 1-422): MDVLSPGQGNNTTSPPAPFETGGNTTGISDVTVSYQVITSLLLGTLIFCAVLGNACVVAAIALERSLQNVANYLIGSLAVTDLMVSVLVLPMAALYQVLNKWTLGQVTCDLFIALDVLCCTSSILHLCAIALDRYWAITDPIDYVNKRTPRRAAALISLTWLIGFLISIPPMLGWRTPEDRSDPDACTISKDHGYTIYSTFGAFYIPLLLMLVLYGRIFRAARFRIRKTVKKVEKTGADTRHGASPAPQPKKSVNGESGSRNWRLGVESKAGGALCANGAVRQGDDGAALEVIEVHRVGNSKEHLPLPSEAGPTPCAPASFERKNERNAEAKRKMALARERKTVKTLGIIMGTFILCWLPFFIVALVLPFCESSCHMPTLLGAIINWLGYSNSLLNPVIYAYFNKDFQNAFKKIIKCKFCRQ
Procedure: (§1) The interaction of the compounds of Formula (I) with dopamine-receptors, h5HT-transporter and h5HT1A receptor was assessed in in vitro radioligand binding experiments. In general, a low concentration of a radioligand with a high binding affinity for a particular receptor or transporter is incubated with a sample of a tissue preparation enriched in a particular receptor or transporter or with a preparation of cells expressing cloned human receptors in a buffered medium. During the incubation, the radioligand binds to the receptor or transporter. When equilibrium of binding is reached, the receptor bound radioactivity is separated from the non-bound radioactivity, and the receptor- or transporter-bound activity is counted The interaction of the test compounds with the receptor is assessed in competition binding experiments. Various concentrations of the test compound are added to the incubation mixture containing the receptor- or transporter preparation and the radioligand. The test compound in proportion to its binding affinity and its concentration inhibits binding of the radioligand.
Human 5HT1A receptor-transfected L929 cells were collected by scraping into ice-cold Tris-HCl buffer (50 mM, pH 7.4). The suspension was centrifuged (23 500×g, 10 min, 4° C.) and pellets stored at −70° C. until required. They were then thawed and briefly homogenised using an Ultra-Turrax T25 homogeniser prior to dilution to an appropriate protein concentration optimised for specific and non-specific binding. [^3H]8OHDPAT (NEN, specific activity 127 Ci/mmol) was diluted in Tris-HCl assay buffer containing CaCl2 (50 mM and 4 mM, respectively; pH 7.7) at a concentration of 5 nmol/L. Prepared radioligand (50 μl) was then incubated (30 min, 37° C.) with membrane preparations from L929 cells stably-transfected with the h5HT1A gene construct (400 μl) and with 50 μl of either the 10% DMSO control, spiroxatrine (10^−6 mol/L final concentration), or compound of interest. Membrane-bound activity was detected by filtration through a Packard Filtermate harvester onto Unifaltemplates, washing with ice-cold Tris-HCI buffer (3×4 ml), followed by drying. Scintillation fluid was added and membranes were counted in a Topcount scintillation counter. % Specific bound and competition binding curves were calculated using S-Plus software (Insightful).

human 5HT transporter = biological target: T2, human 5HT transporter (Homo sapiens, UniProt P31645); assay: Binding experiment for 5-HT transporter, [3H]Paroxetine; conditions: 5HT transporter-transfected HEK cells, [3H]Paroxetine binding; read-out: pIC50 5HT reuptake inhibition (converted)
T2 construct: host or cells: HEK cells
Procedure: as §1
Frozen human 5HT transporter-transfected HEK cells (Perkin Elmer, Brussels) were thawed and briefly homogenised using an Ultra-Turrax T25 homogeniser prior to dilution to an appropriate protein concentration optimised for specific and non-specific binding. [^3H]Paroxetine (NEN, specific activity 20 Ci/mmol) was diluted in Tris-HCl assay buffer containing NaCl and KCl (50 mM 120 mM and 5 mM, respectively; pH 7.4) at a concentration of 5 nmol/L. Prepared radioligand (25 μl) was then incubated (60 min, 25° C.) with membrane preparations (200 μl) and with 25 μl of either 10% DMSO control, Imipramine (10^−6 mol/L final concentration), or compound of interest Membrane-bound activity was detected by filtration through a Packard Filtermate harvester onto Unifilterplates pre-soaked in 0.1% PEI, washing with ice-cold assay buffer (3×4 ml). Filters were dried prior to addition of scintillation fluid and then counting in a Topcount scintillation counter. % Specific bound and competition binding curves were calculated using S-Plus software (Insightful).

[1] = biological target: T3, Human Dopamine D2L receptor (Homo sapiens, UniProt P14416); assay: Radioligand binding experiment for dopamine D2 receptor (hD2), [3H]Spiperone; conditions: membranes of D2L receptor-transfected CHO cells, read-out: pIC50 D2 (converted)
T3 construct: expressed in transfected cells; host or cells: CHO cells
Procedure: as §1
Human Dopamine D2L receptor-transfected CHO cells were collected by scraping into ice-cold Tris-HCl buffer ([…], pH 7.4). The suspension was centrifuged (23 500×g, 10 min, 4° C.) and pellets stored at −70° C. until require. They were then thawed and briefly homogenised using an Ultra-Turrax T25 homogeniser prior to dilution to an appropriate protein concentration optimised for specific and non-specific binding. [^3H]Spiperone (NEN, specific activity˜70 Ci/mmol) was diluted in Tris-HCl assay buffer containing NaCl, CaCl2, MgCl2, KCI (50, 120, 2, 1, and 5 mM respectively, adjusted to pH 7.7 with HCl) at a concentration of 2 nmol/L. Prepared radioligand (50 μl) was then incubated (30 min, 37° C.) with membrane preparations pre-diluted to an appropriate protein concentration (400 μl), and with 50 μl of either the 10% DMSO control, Butaclamol (10^−6 mol/L final concentration), or compound of interest. Membrane-bound activity was detected by filtration through a Packard Filtermate harvester onto Unifilterplates, washing with ice-old Tris-HCl buffer (50 mM; pH8.0; 3×4 ml). Filters were allowed to dry before adding scintillation fluid and counting in a Topcount scintillation counter. % Specific bound and competition binding curves were calculated using S-Plus software (Insightful).

T2 sequence (P31645 whole entry): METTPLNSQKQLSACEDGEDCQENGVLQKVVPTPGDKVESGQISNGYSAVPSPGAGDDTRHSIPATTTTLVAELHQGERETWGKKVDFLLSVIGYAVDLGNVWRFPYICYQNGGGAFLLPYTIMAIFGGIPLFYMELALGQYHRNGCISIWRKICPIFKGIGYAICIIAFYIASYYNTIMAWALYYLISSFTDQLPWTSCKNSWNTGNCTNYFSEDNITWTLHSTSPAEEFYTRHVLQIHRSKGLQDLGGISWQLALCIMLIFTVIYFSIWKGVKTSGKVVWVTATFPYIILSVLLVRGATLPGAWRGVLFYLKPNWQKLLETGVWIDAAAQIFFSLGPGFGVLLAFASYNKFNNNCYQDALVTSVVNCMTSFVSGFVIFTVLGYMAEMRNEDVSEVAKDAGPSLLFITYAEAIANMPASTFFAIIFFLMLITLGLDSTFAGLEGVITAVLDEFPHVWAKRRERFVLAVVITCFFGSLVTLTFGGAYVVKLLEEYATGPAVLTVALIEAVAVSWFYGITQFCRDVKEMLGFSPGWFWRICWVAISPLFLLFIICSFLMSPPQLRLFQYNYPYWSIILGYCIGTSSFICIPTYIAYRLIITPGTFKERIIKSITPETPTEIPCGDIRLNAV
T3 sequence (P14416 whole entry): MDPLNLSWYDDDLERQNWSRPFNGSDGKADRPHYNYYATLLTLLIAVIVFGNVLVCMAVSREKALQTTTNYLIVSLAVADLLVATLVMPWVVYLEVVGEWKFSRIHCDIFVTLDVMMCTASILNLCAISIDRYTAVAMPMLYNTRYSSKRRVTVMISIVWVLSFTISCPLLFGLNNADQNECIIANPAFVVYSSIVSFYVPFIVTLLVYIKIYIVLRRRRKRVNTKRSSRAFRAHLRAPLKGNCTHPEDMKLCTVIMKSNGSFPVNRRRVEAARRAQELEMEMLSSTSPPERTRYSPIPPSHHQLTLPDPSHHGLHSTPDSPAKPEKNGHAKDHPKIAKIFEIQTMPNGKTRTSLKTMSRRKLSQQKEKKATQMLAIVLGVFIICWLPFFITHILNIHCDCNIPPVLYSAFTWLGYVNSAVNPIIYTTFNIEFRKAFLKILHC

`Fc1ccc2[nH]cc(C3=CCN(CC4Oc5cccnc5O4)CC3)c2c1` (stereo not drawn) [Compound 7] gave an IC50 (Human 5HT1A receptor) of 398 nM, an IC50 (human 5HT transporter) greater than 1000 nM and an IC50 [1] of 251 nM.
